melting point [°C] | SMILES
85 to 90 | Nc1ccccc1CNC(=O)C1Cc2ccccc2N1S(=O)(=O)c1ccc(-c2ccc(F)cc2Cl)cc1 (centres undefined)
147 | CCOC(=O)c1ccc(OCC2CCN(c3ccc(OC)nn3)CC2)cc1
193 to 194 | O=C1CC2CCc3cc(O)ccc3C2=NN1c1ccccn1 (centres undefined)
249 to 251 | COCOc1ccc(-c2ccc(-c3ccc(C(=O)O)cc3)cc2-c2ccc3c(c2)C(C)(C)CCC3(C)C)cc1
127 to 129 | Cc1c(SCCCSc2ccc3ncc([N+](=O)[O-])n3n2)ccnc1CO
196 to 197 | COC(=O)NCC1CN(c2ccc(C3C=CS(=O)(=O)CC3)cc2)C(=O)O1 (centres undefined)
121 to 122 | Brc1ccc(SC23CC4CC(CC(C4)C2)C3)cc1
178 to 179 | Nc1c2c(nc3ccccc13)CCC=C2
176 to 182 | CC(C)N=C(NC#N)Nc1cc(C(F)(F)F)cc(C(F)(F)F)c1
124 to 126 | CC(=O)OC(OC(C)=O)c1ccc([N+](=O)[O-])cc1
148 to 156 | COc1ccc(CC(=O)Nc2nc3c(ncn3C3CC(O)C(COC(c4ccccc4)(c4ccc(OC)cc4)c4ccc(OC)cc4)O3)c(=O)[nH]2)cc1 (centres undefined)
124 to 125 | CCCCCC(=O)c1ncc(S(N)(=O)=O)s1
277 to 279 | CCCn1ncc2c(=O)[nH]c(-c3cc(C(=O)O)ccc3OCC)nc21
225 to 227 | CCN1C(=O)CCCc2c1ccc(Nc1ncc(Cl)c(Nc3ccccc3C(=O)NC)n1)c2OC
180 to 181 | CCOC(=O)c1sc2[nH]c(C(=O)c3ccccc3)cc2c1C
165 to 166 | COc1ccc(-c2nn(C(C)C)c(=O)c(C(N)=O)c2-c2ccc(OC)cc2)cc1
182 to 184 | N#Cc1ccc2c(c1)CCCC2(O)c1ccns1 (centres undefined)
196 to 198 | Cn1cc(-c2ncc(-c3ccc4cc(OCC#N)ccc4c3)o2)c2ccccc21
165 to 166 | CCCCCC1=C(/C=C/C(=O)O)Cc2cc(OC)ccc21
56 | O=C(O)CCCCCCCCCCc1ccc(F)cc1F
190 to 191 | CCC1(CC(=O)O)OCCc2nc(-c3ccc(Cl)cc3)sc21 (centres undefined)
208 to 209 | Cc1cccc(-c2nc3cccnn3c2-c2ccnc(Nc3ccccc3C)c2)c1
173 | c1cnc(NCCN2CCC(=C3c4sccc4CCn4ccnc43)CC2)nc1
92 to 94 | COC(=O)c1ccc(/C=C/c2cnc3ccccc3c2)cc1

melting point [°C] | SMILES
147 to 150 | O=C(O)c1cccnc1C(=O)c1cccc(C(F)(F)F)c1
150 to 151 | O=C(Nc1ccc(Oc2ccnc(NC3CCS(=O)(=O)C3)n2)c2ccccc12)c1cc(F)cc(N2CCOCC2)c1 (centres undefined)
211 to 214 | Cc1cc(-c2ccccc2O)n(-c2ccccc2)n1
95 to 96 | COc1ccc(-c2c(Cl)ncnc2Cl)cc1
71 to 73 | CCC(CCN=C(O)C(Br)=C(Br)C(=O)O)c1ccccc1 (centres undefined)
53 to 54 | CCNc1c(C(=O)OCC)c(C)nc2scnc12
104 | COc1cc([N+](=O)[O-])ccc1C(=O)N1CCCCC1
97 to 98 | CC#CC(C)(C)NC(=O)C(CC)Oc1cc(C#N)cc(OC)c1 (centres undefined)
72 | O=C(O)COc1ccc(OCc2ccccc2)cc1OCc1ccccc1
130 to 132 | CCOC(=O)CC(C)NC(=O)c1ccc(N2CCN(c3ccncc3)CC2)cc1 (centres undefined)
201 to 202 | NC(=O)N1C(=O)C(=C(OC(=O)c2cccnc2)c2cccs2)c2cc(F)c(Cl)cc21
109 | CCc1ccc(OCc2ccc(CO)c(CO)c2)cc1-c1ccc(C(O)(CC)CC)cc1C(C)C
172 to 173 | Cc1cc(=O)c2ccc(OCCCN3CCC(NC(=O)Cc4ccccc4)CC3)cc2o1
122 | C=CCOc1cc(O)c2c(=O)cc(-c3ccc(OC)c(OCC=C)c3)oc2c1
53.5 to 54.5 | CSc1cc2ccccc2cc1C=O
136 to 137 | COc1c(O)ccc(C=O)c1[N+](=O)[O-]
218 to 219 | CCCNC(=O)NS(=O)(=O)c1ccccc1Br
229 to 231 | Cc1cccc(NC(=O)c2ccccc2CN2C(=O)C3(COc4cc5c(cc43)CCO5)c3ccccc32)c1 (centres undefined)
176 to 178 | O=S(=O)(c1ccccc1)c1c[nH]c2ccc(Br)cc12
94 | COc1ccc2ccc(OC)c(C=O)c2c1
107 to 109 | COC(=O)c1cc(Cl)c2c(c1OC)CCN2C(C)=O
194 to 196 | COC(=O)[C@@](C#N)(Cc1ccccn1)[C@H](c1ccccc1OC)c1cccc2ccccc12 (relative stereo)
69 | Cc1ccc(C)n1-c1ccc(Br)cn1
32 to 33 | CC(C)c1ccc(Cl)nn1

melting point [°C] | SMILES
167 to 168 | CC1(C)CCC(C)(C)c2cc(CC#Cc3ccc(C(=O)O)cc3)ccc21
68 to 70 | CCCC(Oc1ccccc1)C(=O)NCCO[N+](=O)[O-] (centres undefined)
220 to 221 | CNc1nc(-c2ccc(Cl)c(Cl)c2)cs1
287 to 289 | O=c1nc(-c2c(-c3ccccc3)nn3ccccc23)cc[nH]1
144 to 146 | CN(C(=O)Nc1ccccc1CCc1cc(C(C)(C)C)c(O)c(C(C)(C)C)c1)C1CCN(Cc2ccccc2)CC1
188 to 190 | CCCCCCCCCCCC(=O)Oc1ccc2[nH]c3c(C)c4ccncc4c(C)c3c2c1
188 to 190 | Cc1[nH]cnc1/C=C/C(=O)c1cc2ccccc2s1
62 to 64 | O=[N+]([O-])c1ccc(CO)c(Cl)c1
80 to 90 | CC(C)(O)CON1C(C)(C)CC(OC(=O)c2ccc3nn(-c4cc(C(C)(C)C)cc(C(C)(C)c5ccc(Cl)cc5)c4O)nc3c2)CC1(C)C
107 to 109 | FC(F)(F)Cn1cc(C#Cc2cccc(Br)c2)cn1
80.8 to 81.3 | CCCCc1nc2c(N)nc3ccccc3c2n1CCOCCCc1ccccc1
133 to 135 | COC(=O)COc1ccc2ccc(C(C)=O)c(O)c2c1
230 to 231 | O=c1c2ccccc2nc(-c2cc(-c3ccncc3)c(N3CCOCC3)s2)n1-c1ccccc1
85 to 86 | c1ccc(-c2cc3ccc4ccccc4n3n2)cc1
> 280 | CC(=O)N(Cc1cc(Br)cc2[nH]c(=O)c(=O)[nH]c12)CP(=O)(O)O
79 to 81 | c1ccc2c(c1)CCc1c-2noc1N1CCCNCC1
223 | O=C(Nc1ccc(S(=O)(=O)c2ccc([N+](=O)[O-])cc2)cc1)N[C@@H](Cc1ccc(NC(=O)c2c(Cl)cccc2Cl)cc1)C(=O)O
91 to 92 | C#Cc1ccc2ccc(OC(OC)C(=O)NC(C)(C)COC)cc2c1 (centres undefined)
58 to 59 | CO[C@@H](C)[C@](C)(OC)c1cc(F)cc(OCc2ccc3ccccc3c2)c1 (racemic)
106 to 107 | CCCCc1oc2ccccc2c1C(O)c1cc(I)c(OCCN(CC)CC)c(I)c1 (centres undefined)
181 to 182 | Cc1nn(-c2ccc(F)cc2)cc1C(=O)Nc1ccc(OCC(C)(C)C)c(C#N)c1
100 to 101 | Cc1cc(-c2cccc(C(=O)CC(=O)Nc3cc(-c4ccc(F)cc4)ccc3NC(=O)OC(C)(C)C)c2)on1
41 to 45 | CNCc1ccc2c(Br)c(OC)ccc2c1
148 to 152 | CCOc1ccc(-c2[nH]c(-c3ccc([N+](=O)[O-])cc3)nc2C(=O)O)cc1

melting point [°C] | SMILES
132 | CCCCCCCCCCCCCCC[C@@H](O)[C@@H](NCc1ccccc1)C(=O)O
127 to 128 | Cc1cc2c(c(C)c1N)C(c1ccccc1)CO2 (centres undefined)
190 to 191 | COc1ccc2[nH]c(C)c(C=O)c2c1
240 | Cc1c(Br)c2ccccn2c1C(=O)c1cc(Cl)c(O)c(Cl)c1
236 to 238 | O=S(=O)(NC1CCCCC1)c1ccc(Nc2nccc(N3CCCc4c(O)cccc43)n2)cc1
276 to 278 | CC(C)(O)C(=O)CC(=O)c1ccc(C(=O)CC(=O)C(C)(C)O)cc1
89 to 90 | O=C(NCCc1ccc(O)c(F)c1)OCc1ccccc1
237 to 242 | CCN1CCc2ccc(Nc3ncc(Cl)c(N[C@H]4CCC[C@H]4C(N)=O)n3)cc2CC1 (relative stereo)
123 to 124 | OC(CNCc1ccccc1)C(c1ccccc1)c1ccccc1 (centres undefined)
108 to 110 | Cn1cccc1C(=O)c1ccc2ccccc2c1
132 to 134 | CCOC(=O)C(CC=C1CCN(c2ccccc2)C1=O)Nc1cc(Cl)ccc1I (centres undefined)
182 to 184 | CCC(=S)NC[C@H]1CN(c2ccc(N3CCN(C#N)CC3)c(F)c2)C(=O)O1
158 to 160 | CS(=O)(=O)Nc1ccc(C(=N)Nc2cc(Cl)cc(NC(=O)/C=C/c3ccccc3Cl)c2)cc1
122 | CCCC(C)(O)C(=O)Nc1cc(Br)nc(OC)c1 (centres undefined)
95 to 101 | CCCc1nc(CO)c[nH]1
130 to 132 | O=C(O)CC[C@@H](Cc1cn(Cc2ccccc2)c2ccccc12)NC(=O)CCCCCCc1ccccc1
140 to 144 | CN(C)S(=O)(=O)c1ccc2c(c1)C(Cl)c1ccccc1C=C2 (centres undefined)
143 to 145 | COc1cc(OC)nc(Oc2cccc3c2C(=O)OC3O)n1 (centres undefined)
197 | O=C1Nc2cccnc2N(C(=O)CCC#CCN2CCCCC2)c2ccccc21
170 to 173 | COc1cc2c(cc1OS(N)(=O)=O)CC(C)(C)N(C(=O)c1cc(OC)c(OC)c(OC)c1)C2C (centres undefined)
175 to 179 | Cc1ccc2oc(=O)c(C(=O)Oc3cc(Cl)ccc3Cl)cc2c1
180 to 182 | Cc1c(CC(=O)O)c2cc(O)ccc2n1C(=O)c1ccc(F)cc1
115 to 116 | O=C(c1cccnc1)N1CCC(c2ccccc2Cl)=N1
181 to 183 | CC(C)c1cccc(C(C)C)c1NC(=O)CN1CCN(CCSc2nc3cccc(-c4cc[nH]n4)c3o2)CC1

SMILES | melting point [°C]
CNC(=O)Oc1cc(C)c(NC(=O)COC)c(C)c1 | 180 to 182
CC(C)(C)CCCOC1CCC2C3C(=O)C=C4CC(O)CCC4(C)C3CCC12C (centres undefined) | 203 to 205
CCOC1CC2(C)C(CCC3C4CCC(C(C)=O)C4(C)CC(NCCC(C)C)C32)CC1O (centres undefined) | 110 to 112
